Measurements: patent publication US6552060B1, “Asymmetric disulfides and methods of using same” (Prolx Pharmaceuticals, Inc., priority 1997, dated 2003)
Values joined by “and” are separate entries in the source; they are usually repeats but may differ in a detail not shown here. Identical values can stand only once. “Also recorded” adds a separate entry of the source. Like-named read-outs stand apart in the source and are kept apart here. Marks after values point to notes of the source that are not given here.

What was measured:
TR/Trx = biological target: T1, TR/Trx (Homo sapiens, UniProt Q16881); assay: Thioredoxin dependent reduction of insulin by human thioredoxin reductase and NADPH (IC50 TR/Trx, 96 well); type: biochemical
T1 sequence (Q16881 1-499 isoform Q16881-5): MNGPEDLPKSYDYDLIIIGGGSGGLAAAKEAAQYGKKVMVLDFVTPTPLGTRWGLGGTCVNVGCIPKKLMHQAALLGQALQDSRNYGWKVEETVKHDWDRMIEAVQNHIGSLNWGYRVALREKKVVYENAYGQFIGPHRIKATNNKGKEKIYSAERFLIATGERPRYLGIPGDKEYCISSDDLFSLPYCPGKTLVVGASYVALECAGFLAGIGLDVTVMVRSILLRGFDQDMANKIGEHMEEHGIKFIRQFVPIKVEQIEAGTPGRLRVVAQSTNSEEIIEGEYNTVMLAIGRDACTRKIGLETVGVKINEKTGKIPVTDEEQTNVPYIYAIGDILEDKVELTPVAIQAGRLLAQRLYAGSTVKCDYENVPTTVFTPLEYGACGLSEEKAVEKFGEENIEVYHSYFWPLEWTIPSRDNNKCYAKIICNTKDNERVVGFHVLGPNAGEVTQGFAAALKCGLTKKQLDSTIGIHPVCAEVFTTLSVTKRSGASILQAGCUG
Text: When referring to the particular system being analyzed IC50 is typically followed by an abbreviation referring to that system (i.e., IC50 TR/Trx for the above described thioredoxin redox system which is comprised of thioredoxin reductase and thioredoxin).
A second plate was used for the assessment of biological activity or as a biological screen. Aliquots of disulfides dissolved in DMSO, were be transferred into 96 well plates. The assay to assess their ability to inhibit thioredoxin reductase measures the thioredoxin dependent reduction of insulin by human thioredoxin reductase and NADPH. The effects of the disulfides on the reduction of Trx by TR were measured spectrophotometrically by following the reduction of NADPH at 339 nm with insulin as the final electron acceptor in a buffered mixture of TR, Trx, NADPH and insulin.

[1] = tested on: EMT6 mouse mammary tumor cells; assay: Cytotoxicity against EMT6 cells in culture (MTT); details: read-out: Disulfide Cytotoxicity (IC50), Table 5, 48 h exposure
[2] = tested on: MCF-7 breast cancer cells in scid mice; assay: Activity against MCF-7 breast cancer cells in scid mice; type: in vivo; details: for T/C %: tumor volume treated versus control at day 28
Text: This is shown below in Table II.

in vitro = details: mouse
[3] = biological target: T2, Human placental thioredoxin reductase (Homo sapiens, UniProt Q16881); assay: NADPH oxidation by thioredoxin reductase with the disulfide as substrate, or with thioredoxin and insulin as final electron acceptor and the disulfide as inhibitor; type: biochemical; details: for Type: behaviour towards thioredoxin reductase: substrate, inhibitor or non-reactive
T2 sequence (Q16881 1-499 isoform Q16881-5): T1 sequence (Q16881 1-499 isoform Q16881-5)
Procedure: The thioredoxin was stored at −20° C. with 5 mM dithiothreitol which was removed before use with a desalting column (PD10, Pharmacia, Uppsala, Sweden).
Asymmetrical 2-imidazolyl disulfides which were used as a basis for further development and identified below in Table 1. In Table I, NADPH oxidation by thioredoxin reductase was measured spectrophotometrically as described with either the disulfide as the electron acceptor (substrate) or with thioredoxin and insulin as the final electron acceptor and the disulfide as inhibitors. The reactions were initiated by the addition of NADPH. Km and Ki values were calculated from Lineweaver-Burk plots of the data.
The compounds of Table 1 were synthesized by a method described previously and recrystallized prior to use. Stock solutions of the disulfides were prepared at 10 mM in ethanol and diluted in aqueous media just prior to use. N-ethylmaleimide (NEM), diamide, and DTT were obtained from Sigma Chemical Co. (St. Louis, Mo.). All other chemicals used were of reagent grade. […]

thioredoxin = biological target: T3, thioredoxin (Homo sapiens, UniProt P10599); assay: Direct reaction between thioredoxin and disulfides, release of 2-mercaptoimidazole at 252 nm; type: biochemical; details: thioredoxin 2 μM, disulfide 200 μM, pH 7.4, room temperature
T3 construct: made in house; host or cells: E. coli
T3 sequence (P10599 1-105): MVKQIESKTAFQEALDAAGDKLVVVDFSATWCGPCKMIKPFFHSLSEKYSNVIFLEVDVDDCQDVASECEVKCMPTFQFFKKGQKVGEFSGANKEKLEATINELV
Procedure: The effects of the assymetric disulfides of Table I on the reduction of thioredoxin and C73S by thioredoxin reductase was measured spectrophotometrically by following the reduction of NADPH at 339 nm. […] In some studies the disulfides at 3.5 μM were preincubated for up to 24 hr at room temperature in air with 0.7 μM thioredoxin or C73S in 100 μM HEPES buffer, pH 7.6, and 5 mM EDTA, before measuring the reduction of the thioredoxin or C73S by thioredoxin reductase with 1 mg/ml bovine insulin as the final electron acceptor. The ability of the disulfides to act as substrates for glutathione reductase was measured by following the reduction of NADPH using an incubation mixture containing 0.15 μg/ml glutathione reductase, 140 μM NADPH, 100 mM HEPES buffer, pH 7.6, 5 mM EDTA and the disulfides at 500 μM. The ability of the disulfides to act as inhibitors of glutathione reductase was measured using oxidized glutathione, 50 μM, as the final electron acceptor. In both cases the reaction was initiated by the addition of NADPH. Thioredoxin or C32S/C35S, 2 μM, in 0.1 M sodium phosphate buffer, pH 7.4, was reacted with the disulfides at a concentration of 200 μM at room temperature. This direct reaction between thioredoxin and the disulfides was followed spectrophotometrically as the increase in absorbance at 252 nm due to release of 2-mercaptoimidazole. Initial reaction rates were measured in triplicate.
Due to the fact that the disulfides inhibited thioredoxin-dependent cell growth at concentrations below those required to inhibit thioredoxin reductase, a direct effect of the disulfides on thioredoxin was looked for. The initial reaction between the disulfides and thioredoxin was measured spectrophotometrically (FIGS. 2A and 2B). […] This is the order of reactivity which be predicted from the steric and electronic nature of the disulfides thioalkylating groups.

[4] = Table 4, read-out: Disulfide inhibition of TR/Trx (IC50 TR/Trx) (converted)
[5] = Table 3, read-out: IC50 TR/Trx (converted)

| Structure (SMILES) | Disulfide inhibition of TR/Trx (IC50 TR/Trx) (TR/Trx; Table 4) [µg/mL] | IC50 [1] [µM] | IC50 at 48 h (in vitro) [µM] | other results |
| --- | --- | --- | --- | --- |
| CCCSSc1ncc[nH]1 [Compound B-1] | 7 | 21 | – | – |
| CC(C)SSc1ncccc1C(=O)O [Compound E-23] | 40 | > 180 | – | – |
| CCSSc1ncc[nH]1 [VI-2, ethyl 2-imidazolyl disulfide] | – | – | 8 | Toxicity dead/injected ([2]; 4 mg/kg/day i.p. for 14 days): 1/8; T/C % ([2]; 4 mg/kg/day i.p. for 14 days): 83.0%; Toxicity dead/injected ([2]; 6 mg/kg/day i.p. for 14 days): 0/8; T/C % ([2]; 6 mg/kg/day i.p. for 14 days): 65.8%; Toxicity dead/injected ([2]; 12 mg/kg/day i.p. for 14 days): 4/8; T/C % ([2]; 12 mg/kg/day i.p. for 14 days): 64.6%; IC50 (TR/Trx; [4]): 25 µM; Type [3]: substrate; Km ([3]; disulfide as substrate for reduction by thioredoxin reductase, Lineweaver-Burk): 48 µM and 48.1 µM |
| CCC(C)SSc1nccn1C (centres unmarked) [Compound F-2] | 51 | 43 | – | – |
| CCC(C)SSc1nc2cc([N+](=O)[O-])ccc2[nH]1 (centres unmarked) [Compound F-10] | 47 | 36 | – | – |
| CCC(C)SSc1ncccc1C(=O)O (centres unmarked) [Compound F-23] | 81 | > 180 | – | – |
| CCC(C)SSCc1cccc(OC)c1 (centres unmarked) [Compound F-20] | 61 | > 180 | – | – |
| CC(O)C(C)SSc1ccccc1 (centres unmarked) [Compound M-13] | – | – | 46 | – |
| c1ccc(CSSc2ncc[nH]2)cc1 [DLK-36, benzyl 2-imidazolyl disulfide] | – | – | 22 | Toxicity dead/injected ([2]; 25 mg/kg/day i.p. for 14 days): 1/8; T/C % ([2]; 25 mg/kg/day i.p. for 14 days): 100.7%; Toxicity dead/injected ([2]; 40 mg/kg/day i.p. for 14 days): 0/6; T/C % ([2]; 40 mg/kg/day i.p. for 14 days): 23.7^c %; tumor inhibition ([2]; MCF-7 tumor system): 65%; initial rate for reaction between thioredoxin and disulfide (thioredoxin): 1.3e-06 M/s; Type [3]: competitive inhibitors; also recorded: inhibitor; Ki ([3]; competitive inhibitors of the reduction of thioredoxin by thioredoxin reductase): 31 µM |
| CCC(C)SSc1nnc(C)s1 (centres unmarked) [Compound F-3] | – | – | 7 | IC50 (TR/Trx; [5]): 68.1 µM |
| CC(SSc1nccs1)c1ccccc1 (centres unmarked) [Compound J-1] | – | – | 28 | IC50 (TR/Trx; [5]): 15.8 µM |
| CCC(C)SSc1nccs1 (centres unmarked) [Compound F-5] | – | – | 34 | – |
| CCC(C)SSC(C)c1ccccc1 (centres unmarked) [Compound F-22] | 201 | > 180 | – | – |
| CC(O)C(C)SSc1nc2ccccc2o1 (centres unmarked) [Compound M-29] | – | – | 29 | – |
| CCC(C)SSc1nc2ccccc2s1 (centres unmarked) [Compound F-11] | – | – | – | IC50 (in vitro): 33 µM |
| CC(C)SSc1nccn1C [Compound E-2] | 100 | 33 | – | – |
| Cc1nnc(SSCCCCl)s1 [Compound H-3] | – | > 180 | – | – |
| CCCSSC1CCCC1 [Compound F-27] | – | – | 51 | IC50 (TR/Trx; [4]): 289 µM |
| Cc1ccnc(SSC(C)C)n1 [Compound E-24] | 60 | > 180 | – | – |
| CCCCSSc1nccn1C [Compound C-2] | 147 | 26 | – | – |
| CCC(C)SSc1nc2ccccc2o1 (centres unmarked) [Compound F-12] | 22 | > 180 | – | – |
| CCC(C)SSc1ccccc1 (centres unmarked) [Compound F-13] | – | > 180 | – | – |
| CCC(C)SSc1nc2ccccc2[nH]1 (centres unmarked) [Compound F-8] | 7 | 73 | – | – |
| CC(C)SSc1nc2ccccc2o1 [Compound E-12] | – | > 180 | – | – |
